Source: PubChem BioAssay AID1159565 (GlaxoSmithKline (GSK), 2015)
Activity calls are given as the source filed them. How the calls were made is not given here.

System: T. cruzi-infected H9C2 cardiomyocytes, high-content imaging
Assay: anti-T. cruzi activity in infected cardiomyocytes – imaging, H9C2 host cardiomyocytes, host toxicity (AID 1159565);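 further: infected cells incubated 72 h after plating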
[1] = measured here: H9C2 host cell toxicity
[2] = measured here: amastigotes per cell

| Structure (SMILES) | IC50 | IC50 [1] [µM] | IC50 [2] [µM] |
| --- | --- | --- | --- |
| C[C@@H](Oc1cc(-n2cnc3ccc(C(O)CO)cc32)sc1C(N)=O)c1ccccc1C(F)(F)F (stereo not given in full) | 20 µM | 0.63 | 16 |
| CC(Cn1ccnc1)NC(=O)C=Cc1ccc(Cl)cc1 (stereo not given) | 1 µM | > 50 | 0.63 |
| CNc1cncc(C2CCCN2C(=O)Cc2ccc3ccccc3c2)n1 (stereo not given) | 0.16 µM | > 50 | 0.16 |
| CCN(CC)S(=O)(=O)c1ccc(C)c(NC(=O)c2cc(Cl)c3c(c2)OCO3)c1 | > 50 µM (inactive) | 25 | > 50 |
| Cc1cc(Nc2ccc(C#N)c(Cl)c2C)n[nH]1 | > 50 µM (inactive) | > 50 | 20 |
| CC1=NN(C(=O)CCn2cnc([N+](=O)[O-])n2)C(O)(C(F)(F)F)C1 (stereo not given) | 6.3 µM | > 50 | 1.3 |
| O=S(=O)(c1cccc(CSc2nnc(-c3ccc4c(c3)OCO4)o2)c1)N1CCOCC1 | 0.1 µM | 25 | 0.04 |
| COc1ccc(S(=O)(=O)NC(C)C)cc1Nc1ncc(-c2cccc(F)c2)cn1 | 0.4 µM | > 50 | 0.32 |
| Cc1nc2c(-c3ncn[nH]3)cc(NC(=O)Cc3ccccc3)cn2c1C | 1 µM | 6.3 | 0.79 |
| CN(C)S(=O)(=O)c1ccc(-c2cnc(N)c(-c3nc4ccc(F)cc4[nH]3)c2)cc1 | > 50 µM (inactive) | 1.3 | > 50 |
| O=c1[nH]c(NCCCNCc2cc(Br)cc(Br)c2)nc2ccsc12 | 0.63 µM | 25 | 0.4 |
| Cc1ccc2c(c1)-c1onc(C(=O)N3CCCCC3c3cccnc3)c1CO2 (stereo not given) | 0.13 µM | > 50 | 0.13 |
| CN(C(=O)Nc1ccc2c(c1)CCN(C1CCC1)CC2)c1ccc(C#N)cc1 | 4 µM | > 50 | 2 |
| O=C(N[C@H](CO)c1ccccc1)c1ccc(-c2c[nH]c3nccc(C(F)(F)F)c23)s1 | 10 µM | 13 | 10 |
| COc1cc(F)c2ncc(F)c(CCN3CC[C@H](NCc4cc5c(cn4)OCS5)[C@@H](O)C3)c2c1 | 0.25 µM | > 50 | 0.2 |
| NS(=O)(=O)c1ccc(Nc2nccc(-c3cnn4ncccc34)n2)cc1 | 16 µM | 0.32 | 0.79 |
| COc1ccc2ncc(F)c(CCN3CC[C@@H](NC(=O)c4cc5c(s4)CCC5)[C@@H](O)C3)c2n1 | 0.13 µM | 0.13 | 0.05 |
| Cc1ccc2sc(NC(=O)Cn3cnc([N+](=O)[O-])n3)nc2c1 | 4 µM | > 50 | 0.5 |
| CNc1nc(C)nc(N2CCc3cc(C(=O)NCc4ccc(-c5nccn5C)cc4Cl)ccc32)n1 | 13 µM | 50 | 5 |
| C[C@@H](Oc1cc(-n2cnc3ccc(CC(O)CO)cc32)sc1C(N)=O)c1ccccc1Cl (stereo not given in full) | 50 µM | 0.13 | 13 |

| Structure (SMILES) | IC50 | IC50 [1] [µM] | IC50 [2] [µM] |
| --- | --- | --- | --- |
| COc1ccc(Nc2nc(-c3ccccn3)cs2)c(OC)c1 | 7.9 µM | 2 | 5 |
| COc1ccc2ncc(F)c(NC(=O)C3(O)CCC(NCc4ccc5c(c4)OCCO5)CC3)c2n1 (stereo not given) | 0.13 µM | 32 | 0.16 |
| Cc1ccc(NC(C)C(=O)Nc2ccc(C#N)cc2)cc1S(=O)(=O)N1CCCCC1 (stereo not given) | 7.9 µM | > 50 | 7.9 |
| COc1ccc(OC)c2c(=O)c(Cc3ccccc3)c(C)[nH]c12 | 0.5 µM | > 50 | 0.13 |
| Cc1[nH]n2c(=O)c3c(nc2c1-c1ccc(Cl)cc1)CCCC3 | 1 µM | > 50 | 0.25 |
| Cc1ccc(S(=O)(=O)Nc2ccc(CN3CCN(C(=O)c4cccc(C#N)c4)CC3)cc2)cc1 | 0.5 µM | > 50 | 0.4 |
| CN(C)S(=O)(=O)c1ccc(Cl)c(C(=O)Nc2nc(-c3ccccn3)cs2)c1 | 2 µM | 6.3 | 1.3 |
| O=C1CN(C(=O)c2cccc(Nc3ncc(-c4ccc5c(c4)OCO5)cn3)c2)CCN1 | 0.79 µM | 63 | 0.5 |
| O=C(NCCc1csc(-c2ccc(F)cc2)n1)c1ccco1 | 1.6 µM | > 50 | 1.3 |
| CC(C)c1cc(Nc2cc(Cc3ccccc3)nc(NC3CCC(O)CC3)n2)n[nH]1 (stereo not given) | 0.079 µM | 0.0063 | 0.032 |
| O=c1cc(NCCCNC2CCOc3c(I)cc(Cl)cc32)[nH]c2ccccc12 (stereo not given) | 0.32 µM | 25 | 0.16 |
| O=C(NCC1CCCCC1)c1cnns1 | 3.2 µM | > 50 | 2 |
| CC(C)c1cc(C(=O)N2CCCC(c3cc4ncccc4[nH]3)C2)on1 (stereo not given) | 3.2 µM | > 50 | 1 |
| Cc1sc(C)c(C(F)(F)F)c1CNCCCNc1cc(=O)c2ccccc2[nH]1 | 1 µM | > 50 | 0.5 |
| COc1ccc(Cl)cc1CC(=O)Nc1n[nH]c(-c2ccccn2)n1 | > 50 µM (inactive) | > 50 | 10 |
| CN(Cc1ccc(F)cc1)c1ccc(OCC(=O)N2CCCCC2c2cccnc2)nn1 (stereo not given) | 0.4 µM | > 50 | 0.4 |
| Cn1nc(C(=O)N2CCc3ccccc32)c2c1CCS(=O)(=O)C2 | 13 µM | > 50 | 7.9 |
| COc1ccc(-c2cnc(C)o2)cc1S(=O)(=O)Nc1ccc(C)cc1C | 3.2 µM | > 50 | 3.2 |
| c1ccc(CNc2cccc3ccncc23)cc1 | 6.3 µM | > 50 | 5 |
| CN(Cc1ccccc1)Cc1nnnn1C1CCN(Cc2ccc(-n3ccnc3)cc2)CC1 | 0.32 µM | > 50 | 0.25 |
